Reference: patent US10351546B2, “Pyridin-3-yl acetic acid derivatives as inhibitors of human immunodeficiency virus replication” (priority 2015, dated 2019)

test system: NL-RLuc virus; assay: Inhibition of HIV replication (NL-RLuc luciferase reporter virus in MT-2 cells); format: cell-based; details: Human immunodeficiency virus 1, MT2, 120 h, read-out: Activity
Description: Inhibition of HIV replication: A recombinant NL-RLuc proviral clone was constructed in which a section of the nef gene form NL4-3 was replaced with the Renilla Luciferase gene. This virus is fully infectious and can undergo multiple cycles of replication in cell culture. In addition, the luciferous reporter provides a simple and easy method for quantitating the extent of virus growth and consequently, the antiviral activity of test compounds. The plasmid pNLRLuc contains the proviral NL-Rluc DNA cloned into pUC18 at the PvuII site. The NL-RLuc virus was prepared by transfection of 293T cells with the plasmid pNLRLuc. Transfections were performed using the LipofectAMINE PLUS kit form Invitrogen (Carlsbad, Calif.) according to the manufacturer and the virus generated was titered in MT-2 cells. For susceptibility analyses, the titrated virus was used to infect MT-2 cells in the presence of compound, and after 5 days of incubation, cells were processed and quantitated for virus growth by the amount of expressed luciferase. Assay media was RPMI 1640 supplemented with 10% heat inactivated fetal bovine serum (FBS), 100 units/ml penicillin G/100 units/ml streptomycin, 10 mM HEPES buffer pH 7.55 and 2 mM L-glutamine. The results form at least 2 experiments were used to calculate the EC50 values. Luciferase was quantitated using the Dual Luciferase kit form Promega (Madison, Wis.). Susceptibility of viruses to compounds was determined by incubation in the presence of serial dilutions of the compound. The 50% effective concentration (EC50) was calculated by using the exponential form of the median effect equation where (Fa)=1/[1+(ED50/drug conc.)^m](Johnson V A, Byington R T. Infectivity Assay. In Techniques in HIV Research. ed. Aldovini A, Walker B D. 71-76. New York: Stockton Press. 1990). Activity equal to A refers to a compound having an EC50≤100 nM, while B and C denote compounds having an EC50 between 100 nM and 1 uM (B) or >1 uM (C).

SMILES	EC50 [µM]
Cc1nc(COCc2ncco2)c(-c2ccc(OCCc3ccc(F)cc3)cc2)c(N2CCC(C)(C)CC2)c1[C@H](OC(C)(C)C)C(=O)O [Example 14, (S)-2-(tert-Butoxy)-2-(4-(4,4-dimethylpiperidin-1-yl)-5-(4-(4-fluorophenethoxy)phenyl)-2-methyl-6-((oxazol-2-ylmethoxy)methyl)pyridin-3-yl)acetic acid]	< 0.1
CCOCCOCCOCc1nc(C)c(-c2ccc(OCCc3ccc(F)cc3)cc2)c(N2CCC(C)(C)CC2)c1[C@H](OC(C)(C)C)C(=O)O [Example 110, (S)-2-(tert-Butoxy)-2-(4-(4,4-dimethylpiperidin-1-yl)-2-((2-(2-ethoxyethoxy)ethoxy)methyl)-5-(4-(4-fluorophenethoxy)phenyl)-6-methylpyridin-3-yl)acetic acid]	< 0.1
Cc1cc(F)ccc1CN1CCc2cc(-c3c(COCC4CCOCC4)nc(C)c([C@H](OC(C)(C)C)C(=O)O)c3N3CCC(C)(C)CC3)ccc2C1 [Example 159, (S)-2-(tert-Butoxy)-2-(4-(4,4-dimethylpiperidin-1-yl)-5-(2-(4-fluoro-2-methylbenzyl)-1,2,3,4-tetrahydroisoquinolin-6-yl)-2-methyl-6-(((tetrahydro-2H-pyran-4-yl)methoxy)methyl)pyridin-3-yl)acetic acid]	< 0.1
Cc1cc(F)ccc1CN1CCc2cc(-c3c(CN4CCCC(F)(F)C4)nc(C)c([C@H](OC(C)(C)C)C(=O)O)c3N3CCC(C)(C)CC3)ccc2C1 [Example 129, (S)-2-(tert-Butoxy)-2-(6-((3,3-difluoropiperidin-1-yl)methyl)-4-(4,4-dimethylpiperidin-1-yl)-5-(2-(4-fluoro-2-methylbenzyl)-1,2,3,4-tetrahydroisoquinolin-6-yl)-2-methylpyridin-3-yl)acetic acid]	< 0.1
Cc1nc(Cc2ccc(F)cc2)c(-c2ccc(OCCc3ccc(F)cc3)cc2)c(N2CCC(C)(C)CC2)c1[C@H](OC(C)(C)C)C(=O)O [Example 170, (S)-2-(tert-Butoxy)-2-(4-(4,4-dimethylpiperidin-1-yl)-6-(4-fluorobenzyl)-5-(4-(4-fluorophenethoxy)phenyl)-2-methylpyridin-3-yl)acetic acid]	< 0.1
Cc1cc(F)ccc1CN1CCc2cc(-c3c(COC(C)C)nc(C)c([C@H](OC(C)(C)C)C(=O)O)c3N3CCC(C)(C)CC3)ccc2C1 [Example 158, (S)-2-(tert-Butoxy)-2-(4-(4,4-dimethylpiperidin-1-yl)-5-(2-(4-fluoro-2-methylbenzyl)-1,2,3,4-tetrahydroisoquinolin-6-yl)-6-(isopropoxymethyl)-2-methylpyridin-3-yl)acetic acid]	< 0.1
CNCc1nc(C)c([C@H](OC(C)(C)C)C(=O)O)c(N2CCC(C)(C)CC2)c1-c1ccc(OCCc2ccc(F)cc2)cc1 [Example 64, (S)-2-(tert-Butoxy)-2-(4-(4,4-dimethylpiperidin-1-yl)-5-(4-(4-fluorophenethoxy)phenyl)-2-methyl-6-((methylamino)methyl)pyridin-3-yl)acetic acid]	< 0.1
Cc1cc(F)ccc1CN1CCc2cc(-c3c(Cn4cnnc4C)nc(C)c([C@H](OC(C)(C)C)C(=O)O)c3N3CCC(C)(C)CC3)ccc2C1 [Example 146, (S)-2-(tert-butoxy)-2-(4-(4,4-dimethylpiperidin-1-yl)-5-(2-(4-fluoro-2-methylbenzyl)-1,2,3,4-tetrahydroisoquinolin-6-yl)-2-methyl-6-((3-methyl-4H-1,2,4-triazol-4-yl)methyl)pyridin-3-yl)acetic acid]	< 0.1
Cc1nc(COCc2cccc(Cl)c2)c(-c2ccc(OCCc3ccc(F)cc3)cc2)c(N2CCC(C)(C)CC2)c1[C@H](OC(C)(C)C)C(=O)O [Example 16, (S)-2-(tert-Butoxy)-2-(6-(((3-chlorobenzyl)oxy)methyl)-4-(4,4-dimethylpiperidin-1-yl)-5-(4-(4-fluorophenethoxy)phenyl)-2-methylpyridin-3-yl)acetic acid]	< 0.1
Cc1nc(CN2CC(C)OC(C)C2)c(-c2ccc(OCCc3ccc(F)cc3)cc2)c(N2CCC(C)(C)CC2)c1[C@H](OC(C)(C)C)C(=O)O (stereo partly drawn) [Example 92, (2S)-2-(tert-Butoxy)-2-(6-((2,6-dimethylmorpholino)methyl)-4-(4,4-dimethylpiperidin-1-yl)-5-(4-(4-fluorophenethoxy)phenyl)-2-methylpyridin-3-yl)acetic acid]	< 0.1
Cc1nc(CNCc2cocn2)c(-c2ccc(OCCc3ccc(F)cc3)cc2)c(N2CCC(C)(C)CC2)c1[C@H](OC(C)(C)C)C(=O)O [Example 78, (S)-2-(tert-Butoxy)-2-(4-(4,4-dimethylpiperidin-1-yl)-5-(4-(4-fluorophenethoxy)phenyl)-2-methyl-6-(((oxazol-4-ylmethyl)amino)methyl)pyridin-3-yl)acetic acid]	< 0.1
Cc1cccc(Cl)c1CN1CCc2cc(-c3c(CN4CCC4)nc(C)c([C@H](OC(C)(C)C)C(=O)O)c3N3CCC(C)(C)CC3)ccc2C1 [Example 175, (S)-2-(6-(Azetidin-1-ylmethyl)-5-(2-(2-chloro-6-methylbenzyl)-1,2,3,4-tetrahydroisoquinolin-6-yl)-4-(4,4-dimethylpiperidin-1-yl)-2-methylpyridin-3-yl)-2-(tert-butoxy)acetic acid]	< 0.1
Cc1nc(COCCCOCc2ccccc2)c([C@H](OC(C)(C)C)C(=O)O)c(N2CCC(C)(C)CC2)c1-c1ccc(OCCc2ccc(F)cc2)cc1 [Example 111, (S)-2-(2-((3-(Benzyloxy)propoxy)methyl)-4-(4,4-dimethylpiperidin-1-yl)-5-(4-(4-fluorophenethoxy)phenyl)-6-methylpyridin-3-yl)-2-(tert-butoxy)acetic acid]	< 0.1
CC(=O)N(C)Cc1nc(C)c([C@H](OC(C)(C)C)C(=O)O)c(N2CCC(C)(C)CC2)c1-c1ccc2c(c1)CCN(Cc1ccc(F)cc1C)C2 [Example 143, (S)-2-(tert-Butoxy)-2-(4-(4,4-dimethylpiperidin-1-yl)-5-(2-(4-fluoro-2-methylbenzyl)-1,2,3,4-tetrahydroisoquinolin-6-yl)-2-methyl-6-((N-methylacetamido)methyl)pyridin-3-yl)acetic acid]	< 0.1
Cc1nc(CN2C3CC2CN(Cc2ccccc2)C3)c(-c2ccc(OCCc3ccc(F)cc3)cc2)c(N2CCC(C)(C)CC2)c1[C@H](OC(C)(C)C)C(=O)O [Example 98, (2S)-2-(6-((3-Benzyl-3,6-diazabicyclo[3.1.1]heptan-6-yl)methyl)-4-(4,4-dimethylpiperidin-1-yl)-5-(4-(4-fluorophenethoxy)phenyl)-2-methylpyridin-3-yl)-2-(tert-butoxy)acetic acid]	< 0.1
CCOCCOCc1nc(C)c([C@H](OC(C)(C)C)C(=O)O)c(N2CCC(C)(C)CC2)c1-c1ccccc1 [Example 34, (S)-2-(tert-Butoxy)-2-(4-(4,4-dimethylpiperidin-1-yl)-6-((2-ethoxyethoxy)methyl)-2-methyl-5-phenylpyridin-3-yl)acetic acid]	< 0.1
Cc1cccc(Cl)c1CN1CCc2cc(-c3c(CN4CCC(C)(C)CC4)nc(C)c([C@H](OC(C)(C)C)C(=O)O)c3N3CCC(C)(C)CC3)ccc2C1 [Example 179, (S)-2-(tert-Butoxy)-2-(5-(2-(2-chloro-6-methylbenzyl)-1,2,3,4-tetrahydroisoquinolin-6-yl)-4-(4,4-dimethylpiperidin-1-yl)-6-((4,4-dimethylpiperidin-1-yl)methyl)-2-methylpyridin-3-yl)acetic acid]	< 0.1

same assay, conditions: Human immunodeficiency virus 1, MT2, 120 h, read-out: EC50 μM

SMILES	EC50 [µM]
Cc1cccc(Cl)c1CN1CCc2cc(-c3c(CN4CCC(C)(C)CC4)nc(C)c([C@H](OC(C)(C)C)C(=O)O)c3N3CCC(C)(C)CC3)ccc2C1 [Example 179, (S)-2-(tert-Butoxy)-2-(5-(2-(2-chloro-6-methylbenzyl)-1,2,3,4-tetrahydroisoquinolin-6-yl)-4-(4,4-dimethylpiperidin-1-yl)-6-((4,4-dimethylpiperidin-1-yl)methyl)-2-methylpyridin-3-yl)acetic acid]	0.005
